Source: ChEMBL document CHEMBL3885861, “Open TG-GATES”

Organism: Rattus norvegicus
Assay: Open TG-GATES - Regimen: Daily Repeat
Format: toxicity, organism-based, Sprague-Dawley
Set-up: regimen Daily Repeat, gender Male, age 6 weeks
Settings: in vivo, po, route gavage; for gamma-GTP / ALP / ALT / AST / BUN / CRE / Ca / Cl / DBIL / GLC / IP / K / LDH / Na / PL / RALB / TBIL / TC / TG / TP: tissue Plasma; for APTT / Bas / Eos / Fbg / Hb / Ht / Lym / MCH / MCHC / MCV / Mono / Neu / PT / Plat / RBC / Ret / WBC: tissue Blood; for KIDNEY_L / KIDNEY_R / KIDNEY_TOTAL: tissue Kidney; for LIVER: tissue Liver
[1] = 100 mg/kg, 72 h, dose level Low, time 3 day
[2] = 100 mg/kg, […], dose level Low, time 7 day
[3] = 100 mg/kg, […], dose level Low, time 14 day
[4] = 100 mg/kg, […], dose level Low, time 28 day

COC(=O)C1=C(C)NC(C)=C(C(=O)OC)C1c1ccccc1[N+](=O)[O-] [NIFEDIPINE]
gamma-GTP (0 mg/kg, […], dose level Control, time 28 day): 0.8 IU/L
TERMINAL_BW [1]: 223 g
APTT [1]: 17.6 s
Bas [1]: 0%
Eos [1]: 1%
Fbg [1]: 281.6 mg/dL
Hb [1]: 13.6 g/dL
Ht [1]: 42.3%
Lym [1]: 71.4%
MCH [1]: 20.7 pg
MCHC [1]: 32.3%
MCV [1]: 64 fL
Mono [1]: 3.4%
Neu [1]: 23.6%
PT [1]: 13.8 s
Plat [1]: 130.7 x10_4/uL
RBC [1]: 660.2 x10_4/ul
Ret [1]: 9.2%
WBC [1]: 96 x10_2/uL
KIDNEY_L [1]: 0.9 g
KIDNEY_R [1]: 0.9 g
KIDNEY_TOTAL [1]: 1.9 g
LIVER [1]: 11 g
ALP [1]: 1508 IU/L
ALT [1]: 46.6 IU/L
AST [1]: 65.8 IU/L
BUN [1]: 15 mg/dL
CRE [1]: 0.2 mg/dL
Ca [1]: 10.9 mg/dL
Cl [1]: 107 meq/L
DBIL [1]: 0.014 mg/dL
GLC [1]: 173.4 mg/dL
IP [1]: 6.8 mg/dL
K [1]: 4.5 meq/L
LDH [1]: 88.6 IU/L
Na [1]: 143.2 meq/L
PL [1]: 152 mg/dL
RALB [1]: 2.7 g/dL
TBIL [1]: 0.028 mg/dL
TC [1]: 82.2 mg/dL
TG [1]: 98.8 mg/dL
TP [1]: 5.7 g/dL
gamma-GTP [1]: 1 IU/L
TERMINAL_BW [2]: 261.8 g
TERMINAL_BW [3]: 322.2 g
TERMINAL_BW [4]: 378.4 g
APTT [2]: 14.8 s
Bas [2]: 0.2%
Eos [2]: 1.4%
Fbg [2]: 283.4 mg/dL
Hb [2]: 13.8 g/dL
Ht [2]: 42.1%
Lym [2]: 73%
MCH [2]: 20.9 pg
MCHC [2]: 32.8%
MCV [2]: 63.8 fL
Mono [2]: 3%
Neu [2]: 21.8%
PT [2]: 13.7 s
Plat [2]: 125.1 x10_4/uL
RBC [2]: 659.6 x10_4/ul
Ret [2]: 6.8%
WBC [2]: 105.6 x10_2/uL
APTT [3]: 19 s
Bas [3]: 0.2%
Eos [3]: 1%
Fbg [3]: 260.4 mg/dL
Hb [3]: 14.5 g/dL
Ht [3]: 43.7%
Lym [3]: 72.4%
MCH [3]: 21.1 pg
MCHC [3]: 33.2%
MCV [3]: 63.6 fL
Mono [3]: 2.8%
PT [3]: 14 s
Plat [3]: 113.8 x10_4/uL
RBC [3]: 688 x10_4/ul
Ret [3]: 5.4%
WBC [3]: 110.8 x10_2/uL
APTT [4]: 17.6 s
Bas [4]: 0%
Eos [4]: 1%
Fbg [4]: 281.6 mg/dL
Hb [4]: 13.6 g/dL
Ht [4]: 42.3%
Lym [4]: 71.4%
MCH [4]: 20.7 pg
MCHC [4]: 32.3%
MCV [4]: 64 fL
Mono [4]: 3.4%
Neu [4]: 23.6%
PT [4]: 13.8 s
Plat [4]: 130.7 x10_4/uL
RBC [4]: 660.2 x10_4/ul
Ret [4]: 9.2%
WBC [4]: 96 x10_2/uL
KIDNEY_L [2]: 1.1 g
KIDNEY_R [2]: 1.1 g
KIDNEY_TOTAL [2]: 2.1 g
KIDNEY_L [3]: 1.2 g
KIDNEY_R [3]: 1.2 g
KIDNEY_TOTAL [3]: 2.5 g
KIDNEY_L [4]: 1.3 g
KIDNEY_R [4]: 1.3 g
KIDNEY_TOTAL [4]: 2.6 g
LIVER [2]: 13.2 g
LIVER [3]: 15 g
LIVER [4]: 15.4 g
ALP [2]: 1407 IU/L
ALT [2]: 47 IU/L
AST [2]: 67.4 IU/L
BUN [2]: 17.4 mg/dL
CRE [2]: 0.2 mg/dL
Ca [2]: 10.7 mg/dL
Cl [2]: 106.2 meq/L
DBIL [2]: 0.014 mg/dL
GLC [2]: 174.8 mg/dL
IP [2]: 6.8 mg/dL
K [2]: 4.2 meq/L
LDH [2]: 86.4 IU/L
Na [2]: 143.8 meq/L
PL [2]: 144 mg/dL
RALB [2]: 2.7 g/dL
TBIL [2]: 0.028 mg/dL
TC [2]: 77.4 mg/dL
TG [2]: 93.4 mg/dL
TP [2]: 5.9 g/dL
gamma-GTP [2]: 1 IU/L
ALP [3]: 1646.4 IU/L
ALT [3]: 44.4 IU/L
AST [3]: 71.4 IU/L
BUN [3]: 17.6 mg/dL
CRE [3]: 0.2 mg/dL
Ca [3]: 11 mg/dL
Cl [3]: 105.8 meq/L
DBIL [3]: 0.012 mg/dL
GLC [3]: 177.4 mg/dL
IP [3]: 6.7 mg/dL
K [3]: 4.2 meq/L
LDH [3]: 46.2 IU/L
Na [3]: 143.2 meq/L
PL [3]: 149.6 mg/dL
RALB [3]: 2.7 g/dL
TBIL [3]: 0.026 mg/dL
TC [3]: 73.6 mg/dL
TP [3]: 5.9 g/dL
gamma-GTP [3]: 1 IU/L
ALP [4]: 1032.8 IU/L
ALT [4]: 39.6 IU/L
AST [4]: 71.2 IU/L
BUN [4]: 17.2 mg/dL
CRE [4]: 0.3 mg/dL
Ca [4]: 10.4 mg/dL
Cl [4]: 107.4 meq/L
DBIL [4]: 0.012 mg/dL
GLC [4]: 167.8 mg/dL
IP [4]: 5.6 mg/dL
K [4]: 3.9 meq/L
LDH [4]: 61.8 IU/L
Na [4]: 143.8 meq/L
PL [4]: 135 mg/dL
RALB [4]: 2.8 g/dL
TBIL [4]: 0.024 mg/dL
TC [4]: 64.6 mg/dL
TG [4]: 117.8 mg/dL
TP [4]: 6.1 g/dL
